Experimental data from PubChem BioAssay (NCI).
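Dose response: 5 concentrations. Exposure: 48 h. Format: 96-well plates. Endpoint: linear interpolation; highest concentration if not reached. Definition used: TGI = concentration required for complete inhibition of growth.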

How the values were obtained:
Assay in all cases: DTP human tumour cell line panel, 48 h
786-0 renal = tested on: 786-0 renal
A498 renal = tested on: A498 renal
A549 NSCLC = tested on: A549 NSCLC
ACHN renal = tested on: ACHN renal
BT-549 breast = tested on: BT-549 breast
CAKI-1 renal = tested on: CAKI-1 renal
CCRF-CEM leukemia = tested on: CCRF-CEM leukemia
COLO 205 colon = tested on: COLO 205 colon
DU-145 prostate = tested on: DU-145 prostate
EKVX NSCLC = tested on: EKVX NSCLC
HCC-2998 colon = tested on: HCC-2998 colon
HCT-116 colon = tested on: HCT-116 colon
HCT-15 colon = tested on: HCT-15 colon
HL-60(TB) leukemia = tested on: HL-60(TB) leukemia
HOP-62 NSCLC = tested on: HOP-62 NSCLC
HOP-92 NSCLC = tested on: HOP-92 NSCLC
HS 578T breast = tested on: HS 578T breast
HT29 colon = tested on: HT29 colon
IGROV1 ovarian = tested on: IGROV1 ovarian
K-562 leukemia = tested on: K-562 leukemia
KM12 colon = tested on: KM12 colon
LOX IMVI melanoma = tested on: LOX IMVI melanoma
M14 melanoma = tested on: M14 melanoma
MALME-3M melanoma = tested on: MALME-3M melanoma
MDA-MB-231 breast = tested on: MDA-MB-231 breast
MDA-MB-435 = tested on: MDA-MB-435
MDA-N = tested on: MDA-N
MOLT-4 leukemia = tested on: MOLT-4 leukemia
NCI-H226 lung = tested on: NCI-H226 lung
NCI-H23 lung = tested on: NCI-H23 lung
NCI-H460 lung = tested on: NCI-H460 lung
NCI-H522 lung = tested on: NCI-H522 lung
NCI/ADR-RES ovarian = tested on: NCI/ADR-RES ovarian
OVCAR-3 ovarian = tested on: OVCAR-3 ovarian
OVCAR-4 ovarian = tested on: OVCAR-4 ovarian
OVCAR-5 ovarian = tested on: OVCAR-5 ovarian
OVCAR-8 ovarian = tested on: OVCAR-8 ovarian
PC-3 prostate = tested on: PC-3 prostate
RPMI-8226 leukemia = tested on: RPMI-8226 leukemia
RXF 393 renal = tested on: RXF 393 renal
SF-268 CNS = tested on: SF-268 CNS
SF-295 CNS = tested on: SF-295 CNS
SF-539 CNS = tested on: SF-539 CNS
SK-MEL-2 melanoma = tested on: SK-MEL-2 melanoma
SK-MEL-28 melanoma = tested on: SK-MEL-28 melanoma
SK-MEL-5 melanoma = tested on: SK-MEL-5 melanoma
SK-OV-3 ovarian = tested on: SK-OV-3 ovarian
SN12C renal = tested on: SN12C renal
SNB-19 CNS = tested on: SNB-19 CNS
SNB-75 CNS = tested on: SNB-75 CNS
SR leukemia = tested on: SR leukemia
SW-620 colon = tested on: SW-620 colon
T-47D breast = tested on: T-47D breast
TK-10 renal = tested on: TK-10 renal
U251 CNS = tested on: U251 CNS
UACC-257 melanoma = tested on: UACC-257 melanoma
UACC-62 melanoma = tested on: UACC-62 melanoma
UO-31 renal = tested on: UO-31 renal
MCF7 breast = tested on: MCF7 breast

SMILES: COC(C)(C)OCCN1CCN(CCN2C3=C(C=C(C(C)=O)C3)Sc3ccccc32)CC1
- TGI (786-0 renal): 36 µM
- TGI (A498 renal): 34 µM
- TGI (A549 NSCLC): 96.7 µM
- TGI (ACHN renal): 35.5 µM
- TGI (BT-549 breast): 44.1 µM
- TGI (CAKI-1 renal): 48.2 µM
- TGI (CCRF-CEM leukemia): 32.4 µM
- TGI (COLO 205 colon): 33.4 µM
- TGI (DU-145 prostate): 68.8 µM
- TGI (EKVX NSCLC): > 100 µM
- TGI (HCC-2998 colon): 36.2 µM
- TGI (HCT-116 colon): 33.6 µM
- TGI (HCT-15 colon): 40.9 µM
- TGI (HL-60(TB) leukemia): 35.8 µM
- TGI (HOP-62 NSCLC): 36.2 µM
- TGI (HOP-92 NSCLC): 92.9 µM
- TGI (HS 578T breast): 36.5 µM
- TGI (HT29 colon): 33.2 µM
- TGI (IGROV1 ovarian): 35.5 µM
- TGI (K-562 leukemia): 32.2 µM
- TGI (KM12 colon): 32.6 µM
- TGI (LOX IMVI melanoma): 42.2 µM
- TGI (M14 melanoma): 40.4 µM
- TGI (MALME-3M melanoma): 36.6 µM
- TGI (MDA-MB-231 breast): 52.4 µM
- TGI (MDA-MB-435): 30.9 µM
- TGI (MDA-N): 36.5 µM
- TGI (MOLT-4 leukemia): 36.7 µM
- TGI (NCI-H226 lung): 65.6 µM
- TGI (NCI-H23 lung): 73.5 µM
- TGI (NCI-H460 lung): 35.5 µM
- TGI (NCI-H522 lung): 33.2 µM
- TGI (NCI/ADR-RES ovarian): 50.2 µM
- TGI (OVCAR-3 ovarian): 45.8 µM
- TGI (OVCAR-4 ovarian): > 100 µM
- TGI (OVCAR-5 ovarian): 59.1 µM
- TGI (OVCAR-8 ovarian): 42.1 µM
- TGI (PC-3 prostate): 72.9 µM
- TGI (RPMI-8226 leukemia): 32.8 µM
- TGI (RXF 393 renal): 42.2 µM
- TGI (SF-268 CNS): 43.2 µM
- TGI (SF-295 CNS): 36.7 µM
- TGI (SF-539 CNS): 39.8 µM
- TGI (SK-MEL-2 melanoma): 41.4 µM
- TGI (SK-MEL-28 melanoma): 32.9 µM
- TGI (SK-MEL-5 melanoma): 32 µM
- TGI (SK-OV-3 ovarian): 79.8 µM
- TGI (SN12C renal): 69.8 µM
- TGI (SNB-19 CNS): 93.3 µM
- TGI (SNB-75 CNS): > 100 µM
- TGI (SR leukemia): 33.2 µM
- TGI (SW-620 colon): 37.2 µM
- TGI (T-47D breast): > 100 µM
- TGI (TK-10 renal): 34.6 µM
- TGI (U251 CNS): 35.2 µM
- TGI (UACC-257 melanoma): 36.9 µM
- TGI (UACC-62 melanoma): 29.4 µM
- TGI (UO-31 renal): 43.1 µM

SMILES: COCOC1C=CCCCC2=CC(C)=C(CC1)O2 (stereo not drawn)
- TGI (786-0 renal): > 100 µM
- TGI (A498 renal): > 100 µM
- TGI (A549 NSCLC): > 100 µM
- TGI (ACHN renal): > 100 µM
- TGI (BT-549 breast): > 100 µM
- TGI (CAKI-1 renal): > 100 µM
- TGI (CCRF-CEM leukemia): > 100 µM
- TGI (COLO 205 colon): > 100 µM
- TGI (DU-145 prostate): > 100 µM
- TGI (EKVX NSCLC): > 100 µM
- TGI (HCC-2998 colon): > 100 µM
- TGI (HCT-116 colon): > 100 µM
- TGI (HCT-15 colon): > 100 µM
- TGI (HOP-62 NSCLC): > 100 µM
- TGI (HOP-92 NSCLC): > 100 µM
- TGI (HS 578T breast): > 100 µM
- TGI (HT29 colon): > 100 µM
- TGI (IGROV1 ovarian): > 100 µM
- TGI (K-562 leukemia): > 100 µM
- TGI (KM12 colon): > 100 µM
- TGI (LOX IMVI melanoma): > 100 µM
- TGI (M14 melanoma): > 100 µM
- TGI (MALME-3M melanoma): > 100 µM
- TGI (MCF7 breast): > 100 µM
- TGI (MDA-MB-231 breast): > 100 µM
- TGI (MDA-MB-435): > 100 µM
- TGI (MDA-N): > 100 µM
- TGI (MOLT-4 leukemia): > 100 µM
- TGI (NCI-H226 lung): > 100 µM
- TGI (NCI-H23 lung): > 100 µM
- TGI (NCI-H460 lung): > 100 µM
- TGI (NCI-H522 lung): > 100 µM
- TGI (NCI/ADR-RES ovarian): > 100 µM
- TGI (OVCAR-3 ovarian): > 100 µM
- TGI (OVCAR-4 ovarian): > 100 µM
- TGI (OVCAR-5 ovarian): > 100 µM
- TGI (OVCAR-8 ovarian): > 100 µM
- TGI (PC-3 prostate): > 100 µM
- TGI (RPMI-8226 leukemia): > 100 µM
- TGI (RXF 393 renal): > 100 µM
- TGI (SF-268 CNS): > 100 µM
- TGI (SF-295 CNS): > 100 µM
- TGI (SF-539 CNS): > 100 µM
- TGI (SK-MEL-28 melanoma): > 100 µM
- TGI (SK-MEL-5 melanoma): > 100 µM
- TGI (SK-OV-3 ovarian): > 100 µM
- TGI (SN12C renal): > 100 µM
- TGI (SNB-19 CNS): > 100 µM
- TGI (SNB-75 CNS): > 100 µM
- TGI (SR leukemia): > 100 µM
- TGI (SW-620 colon): > 100 µM
- TGI (TK-10 renal): > 100 µM
- TGI (U251 CNS): > 100 µM
- TGI (UACC-257 melanoma): > 100 µM
- TGI (UACC-62 melanoma): > 100 µM
- TGI (UO-31 renal): > 100 µM

SMILES: Oc1ccc2ccccc2c1N=Nc1ccc(Br)cc1
- TGI (786-0 renal): > 100 µM
- TGI (A549 NSCLC): > 100 µM
- TGI (ACHN renal): > 100 µM
- TGI (BT-549 breast): > 100 µM
- TGI (CAKI-1 renal): > 100 µM
- TGI (CCRF-CEM leukemia): > 100 µM
- TGI (COLO 205 colon): > 100 µM
- TGI (DU-145 prostate): > 100 µM
- TGI (EKVX NSCLC): > 100 µM
- TGI (HCT-116 colon): > 100 µM
- TGI (HCT-15 colon): > 100 µM
- TGI (HL-60(TB) leukemia): > 100 µM
- TGI (HOP-62 NSCLC): > 100 µM
- TGI (HOP-92 NSCLC): > 100 µM
- TGI (HS 578T breast): > 100 µM
- TGI (HT29 colon): > 100 µM
- TGI (IGROV1 ovarian): > 100 µM
- TGI (K-562 leukemia): > 100 µM
- TGI (KM12 colon): > 100 µM
- TGI (LOX IMVI melanoma): > 100 µM
- TGI (M14 melanoma): > 100 µM
- TGI (MALME-3M melanoma): > 100 µM
- TGI (MDA-MB-231 breast): > 100 µM
- TGI (MDA-MB-435): > 100 µM
- TGI (MDA-N): > 100 µM
- TGI (MOLT-4 leukemia): > 100 µM
- TGI (NCI-H226 lung): > 100 µM
- TGI (NCI-H23 lung): > 100 µM
- TGI (NCI-H522 lung): > 100 µM
- TGI (NCI/ADR-RES ovarian): > 100 µM
- TGI (OVCAR-3 ovarian): > 100 µM
- TGI (OVCAR-4 ovarian): 96.3 µM
- TGI (OVCAR-5 ovarian): > 100 µM
- TGI (OVCAR-8 ovarian): > 100 µM
- TGI (PC-3 prostate): > 100 µM
- TGI (RPMI-8226 leukemia): > 100 µM
- TGI (RXF 393 renal): > 100 µM
- TGI (SF-268 CNS): > 100 µM
- TGI (SF-295 CNS): > 100 µM
- TGI (SK-MEL-2 melanoma): > 100 µM
- TGI (SK-MEL-28 melanoma): > 100 µM
- TGI (SK-MEL-5 melanoma): > 100 µM
- TGI (SK-OV-3 ovarian): > 100 µM
- TGI (SN12C renal): > 100 µM
- TGI (SNB-19 CNS): > 100 µM
- TGI (SNB-75 CNS): > 100 µM
- TGI (SR leukemia): > 100 µM
- TGI (SW-620 colon): > 100 µM
- TGI (T-47D breast): > 100 µM
- TGI (TK-10 renal): > 100 µM
- TGI (U251 CNS): > 100 µM
- TGI (UACC-257 melanoma): > 100 µM
- TGI (UACC-62 melanoma): > 100 µM
- TGI (UO-31 renal): > 100 µM
